From US20250326743A1, “CRYSTAL FORMS OF TRIAZINE DIONE DERIVATIVE AND PREPARATION METHOD THEREFOR” (Jiangsu Hengrui Pharmaceuticals Co., Ltd., priority 2022, published 2025)

What was measured:
[1] = Toxicokinetic evaluation of 14 days of repeated intragastric administration to SD rats; assay type: in vivo
Method: SD rats were used as the test animals. After intragastric administration of the test compounds to the SD rats, the concentrations of the original forms of the compounds in the plasma and the administration solutions were measured by the LC/MS/MS method at different time points.
Twenty-four SD rats, with an equal number of males and females, were evenly divided into 6 groups, each consisting of 4 rats with an equal number of males and females. The rats were provided by Vital River Laboratory Animal Technology Co., Ltd.
A certain amount of compound MYK-461 was weighed out, and 0.5% MC was added to prepare a colorless clear solution.
Compound MYK-461 was administered at doses of 0.5 mg/kg, 1.5 mg/kg, and 3 mg/kg, each with a volume of 10 mL/kg.
0.2-mL blood samples were collected from the orbit at 0.5 h, 1.0 h, 2.0 h, 4.0 h, 8.0 h, and 24.0 h after administration on day 1, and 0.2-mL blood samples were collected from the orbit before administration and at 0.5 h, 1.0 h, 2.0 h, 4.0 h, 8.0 h, and 24.0 h after administration on day 7 and day 14. The blood samples were placed into EDTA-K2 anticoagulation tubes and centrifuged at 10,000 rpm for 1 min (4° C.), and the plasma was isolated within 1 h and stored at −20° C. before analysis. The procedure starting from the blood collection to the centrifugation was performed under ice-bath conditions. Two hours after administration, food was provided. […]

myosin ATPase = biological target: T1, myosin ATPase (Bos taurus, UniProt Q9BE39); conditions: biological evaluation in Application No. WO2022105852; cited from earlier work
T1 construct: 0.07 μM myosin motor protein SI fragment; purchased Cytoskeleton CS-MYS03 (myosin S1); AD99 (actin)
T1 sequence (Q9BE39 85-778 limits assumed): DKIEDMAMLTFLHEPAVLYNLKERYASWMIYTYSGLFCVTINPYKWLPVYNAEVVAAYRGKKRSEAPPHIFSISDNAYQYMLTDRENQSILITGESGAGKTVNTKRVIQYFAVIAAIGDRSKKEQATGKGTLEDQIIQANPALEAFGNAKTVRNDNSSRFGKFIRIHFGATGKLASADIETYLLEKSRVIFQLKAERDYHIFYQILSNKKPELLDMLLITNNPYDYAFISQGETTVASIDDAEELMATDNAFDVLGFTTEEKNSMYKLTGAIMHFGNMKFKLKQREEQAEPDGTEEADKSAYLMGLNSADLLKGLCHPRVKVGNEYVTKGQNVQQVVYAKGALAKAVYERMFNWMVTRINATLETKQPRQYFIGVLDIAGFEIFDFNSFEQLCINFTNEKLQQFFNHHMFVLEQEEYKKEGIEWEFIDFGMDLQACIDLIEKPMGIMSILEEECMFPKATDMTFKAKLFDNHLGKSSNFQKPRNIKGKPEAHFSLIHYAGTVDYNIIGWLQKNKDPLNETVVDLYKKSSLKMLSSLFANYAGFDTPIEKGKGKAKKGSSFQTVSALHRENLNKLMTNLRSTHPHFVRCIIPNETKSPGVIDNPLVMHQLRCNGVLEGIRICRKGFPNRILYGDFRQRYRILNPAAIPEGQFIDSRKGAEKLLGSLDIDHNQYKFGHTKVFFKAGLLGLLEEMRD
T1 sequence (P85100 whole entry partner, the tested form may be a part): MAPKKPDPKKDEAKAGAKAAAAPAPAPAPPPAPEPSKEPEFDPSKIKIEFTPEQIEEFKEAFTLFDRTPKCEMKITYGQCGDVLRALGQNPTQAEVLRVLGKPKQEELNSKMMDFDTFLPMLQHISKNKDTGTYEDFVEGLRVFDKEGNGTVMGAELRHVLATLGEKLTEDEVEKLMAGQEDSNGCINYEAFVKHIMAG

SMILES: Cc1ccc(F)c([C@H](C)Nc2nc(=O)n(C3CCOCC3)c(=O)[nH]2)c1 [(S)-6-((1-(2-Fluoro-5-methylphenyl)ethyl)amino)-3-(tetrahydro-2H-pyran-4-yl)-1,3,5-triazine-2,4(1H,3H)-dione]
- accumulation in the SD rats [1]: did not cause significant accumulation
- inhibitory effect on myosin ATPase (myosin ATPase): very good inhibitory effect
